PMC2010749, “Cytotoxic and clastogenic effects of soluble and insoluble compounds containing hexavalent and trivalent chromium” (British Journal of Cancer, 1981)

What was measured:
[1] = tested on: BHK 21 Syrian hamster fibroblast line; test: Cell growth of BHK cultures (DNA + RNA content), Cr compounds added directly to medium; format: cell-based; details: 48 h in MEM; 0.5 mg/ml
Description: Cell growth and labelling.-The reduction in cell growth, based on the nucleic acid content (DNA + RNA) of treated cultures, and the inhibition of DNA, RNA and protein syn- thesis, based on the incorporation of labelled precursors, were determined, to evaluate the cytotoxic effects of Cr compounds in BHK cell cultures. […] Three to four thousand cells were then examined for each dose level and each time interval, and the mitotic index (the ratio of all mitoses to the total number of cells) and the frequencies of each mitotic phase (the ratios of cells in each phase to total mitoses) were determined. […] Chromium compounds and cell treatments.- The tested compounds of Cr(VI) and Cr(III) and their physico-chemical properties are listed in Table I. In many experiments in which most of them were highly insoluble or only partially soluble (see Tables I, IV, V), Cr compounds were directly suspended in the growth medium used for treatments. In the experiments on the induction of chromosome aberrations and SCE in CHO cells, almost complete solubilization was obtained in N HCI for Cr(III) compounds and 0-5N NaOH for Cr(VI) compounds, after which they were diluted with MEM to the final concentrations specified in Table IX. […] The cytotoxic and clastogenic effects were usually deter- mined just at the end of Cr treatments, but sometimes the treated cells were washed with HBSS and incubated with normal growth medium, so that the effects of Cr were deter- mined at different times after the end of treatment (see Fig. 3 and Table VII).

[2] = tested on: BHK 21 Syrian hamster fibroblast line; test: DNA, RNA and protein syntheses in BHK cells, Cr compounds added directly to medium; format: cell-based; details: 48 h in MEM; 0.5 mg/ml
Description: (§1) Cell growth and labelling.-The reduction in cell growth, based on the nucleic acid content (DNA + RNA) of treated cultures, and the inhibition of DNA, RNA and protein syn- thesis, based on the incorporation of labelled precursors, were determined, to evaluate the cytotoxic effects of Cr compounds in BHK cell cultures. […] Three to four thousand cells were then examined for each dose level and each time interval, and the mitotic index (the ratio of all mitoses to the total number of cells) and the frequencies of each mitotic phase (the ratios of cells in each phase to total mitoses) were determined. […] Chromium compounds and cell treatments.- The tested compounds of Cr(VI) and Cr(III) and their physico-chemical properties are listed in Table I. In many experiments in which most of them were highly insoluble or only partially soluble (see Tables I, IV, V), Cr compounds were directly suspended in the growth medium used for treatments. […] The cytotoxic and clastogenic effects were usually deter- mined just at the end of Cr treatments, but sometimes the treated cells were washed with HBSS and incubated with normal growth medium, so that the effects of Cr were deter- mined at different times after the end of treatment (see Fig. 3 and Table VII).

[3] = tested on: BHK 21 Syrian hamster fibroblast line; test: DNA, RNA and protein syntheses in BHK monolayers exposed to filtered medium preincubated with Cr compounds; format: cell-based; details: preincubated 48 h with 0.5 mg/ml; cells exposed 24 h;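 further: DNA, RNA and protein synthesis in BHK cultures assessed by incorporation of labelled precursors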
Description: as §1

[4] = tested on: CHO Chinese hamster fibroblast line; test: Cell growth of CHO cultures (DNA + RNA content); format: cell-based; details: 32 h in MEM
Description: as §1

[5] = tested on: HEp-2 human epithelial-like line; details: 2 h exposure to medium preincubated 2 days with 0.5 mg/ml in presence of BHK cells
Description: as §1

[6] = tested on: bacteria and mammalian cells in culture; details: 1979, De Flora, 1981, cited from earlier work
Salmonella = details: dissolved in 0.5N NaOH; ref Petrilli & De Flora (1978a,b) and De Flora (1981); cited from earlier work
rats = details: s.c. in rats; 0% in the controls; ref Maltoni (1976); cited from earlier work

Row | Molecule | Cell growth [1] | DNA synthesis [2] | Protein synthesis [2] | RNA synthesis [2] | DNA synthesis, preinc. in MEM [3] | DNA synthesis, preinc. in MEM+BHK [3] | Protein synthesis, preinc. in MEM [3] | Protein synthesis, preinc. in MEM+BHK [3] | RNA synthesis, preinc. in MEM [3] | RNA synthesis, preinc. in MEM+BHK [3] | Cell growth ([4]; 5 µg/ml) | Cell growth ([4]; 25 µg/ml) | Cell growth ([4]; 150 µg/ml) | Mitotic block (% increase of abnormal metaphases 2-4 h after treatment) [5] | Mitotic inhibition, early (% reduction of normal prophases at the end of treatment) [5] | Mitotic inhibition, late (% reduction of normal prophases 24 h after treatment) [5] | Mutagenicity for bacteria and mammalian cells in culture ([6]; fine suspension in water, ref Newbold et al.) | Point mutations in bacteria ([6]; solubilized in acids and alkalis, ref Nestmann et al.) | Mutagenicity in the plate test (Salmonella) | Frequency of sarcomas at the site of injection (rats)
1 | O=S(=O)([O-])[O-].O=S(=O)([O-])[O-].O=S(=O)([O-])[O-].[Cr+3].[Cr+3] [Chromium sulphate] | 68 % of controls | 45 % of controls | 69 % of controls | 55 % of controls | 82 % of controls | 100 % of controls | 100 % of controls | 100 % of controls | 87 % of controls | 100 % of controls | 100 % control | 100 % control | 93 % control | + (+ (<50%)) | + (+ (< 30%)) | + (+ (< 30%)) |  |  |  | 
2 | [O]=[Cr](=[O])([O-])[O-].[Pb+2] [lead chromate] |  |  |  |  |  |  |  |  |  |  |  |  |  |  |  |  | inactive as a mutagen | induce point mutations | positive | 
3 | Chromium sulphate [Chromium alum] | 88 % of controls | 66 % of controls | 96 % of controls | 89 % of controls | 92 % of controls | 100 % of controls | 100 % of controls | 100 % of controls | 100 % of controls | 100 % of controls | 100 % control | 100 % control | 100 % control | + (+ (<50%)) | _ | + (+ (< 30%)) |  |  |  | 20-25%
